Reference: EP4186514A1, “PHARMACEUTICAL COMPOSITION FOR PREVENTING OR TREATING CHOLANGITIS OR LIVER DISEASE CAUSED BY CHOLANGITIS COMPRISING ADENOSINE DERIVATIVE” (Future Medicine Co., Ltd., priority 2021, dated 2023)

Legend:
[1] = Pharmacokinetic test in rats (Experimental Examples 3 and 4); type: in vivo; conditions: male, SD, rat, plasma, po
Protocol: (§1) In order to test the ADME properties of the adenosine derivative of the inventive concept after oral administration, pharmacokinetic properties of the compound of the formula A were measured in vivo.
(§2) Intravenous administration was performed through a tube inserted into the femoral vein, and oral administration was performed using oral gavage.
(§3) After the administration, the experimental animals' blood was taken at predetermined time intervals for 24 hours. Then, the blood was centrifuged to separate plasma. The plasma samples were pretreated with a suitable organic solvent, and then the concentration of the plasma samples was analyzed by LC-MS/MS. The blood concentration-time data of the compound of the formula A was analyzed using WinNonlin (Pharsight, USA), and graphs of the blood concentration-time data are shown in FIGS. 5 through 9. The results of noncompartmental pharmacokinetic parameters calculated from the blood concentration-time data are shown in Tables 5 through 9. In FIGS. 5 through 9, I.V. represents an intravenous administration group, P.O. represents an oral administration group, and the definition of each parameter in Tables 5 through 9 is shown in Table 10.
Thus, the adenosine derivative of the inventive concept is more suitable for oral administration than for intravenous administration.

[2] = Pharmacokinetic test in mice (Experimental Example 5); type: in vivo; conditions: male, ICR, mouse, plasma, oral administration of 10 mg/kg, read-out: half-life T1/2 (converted)
Protocol: as §3, with “In order to test the ADME properties of the adenosine derivative of the inventive concept after oral administration, pharmacokinetic properties of the compound of the formula A were measured in vivo. […] Intravenous administration was performed through a tube inserted into the femoral vein, and oral administration was performed using oral gavage. [Table 4] [table] After” for “After”, “10. FIG. 7 and Table 7 show a graph and parameter values obtained from the blood concentration-time data of Experimental Example 5. […] Thus, the adenosine derivative is suitable for oral administration.” for “10.”

[3] = Pharmacokinetic test in dogs (Experimental Example 6); type: in vivo; conditions: dog, plasma, maximum (Experimental Example 6), read-out: half-life T1/2
Protocol: as §1, §2, §3
FIG. 8 and Table 8 show a graph and parameter values obtained from the blood concentration-time data of Experimental Example 6 (6-1, 6-2 and 6-3). […]

[4] = system: ICR mice; test: Toxicity after intraperitoneal injection, mice; type: in vivo; conditions: intraperitoneal 20, 10 and 1 mg/kg
Protocol: (§4) The Adenosine Derivative of the present invention were assayed for cytotoxicity in animals.

[5] = system: Sprague Dawley rats; test: Toxicity after intraperitoneal injection, rats; type: in vivo; conditions: intraperitoneal 20, 10 and 1 mg/kg
Protocol: as §4

[6] = Cytotoxicity, Cyto X cell viability assay kit; type: cell-based; conditions: in each cell line
[7] = system: each cell line; test: Cytotoxicity, Cyto X cell viability assay kit; type: cell-based; conditions: summary Table 11
[8] = target: hERG channel protein (Homo sapiens, UniProt Q12809); test: hERG ligand binding assay (fluorescence polarization)
hERG channel protein, sequence (Q12809 whole entry): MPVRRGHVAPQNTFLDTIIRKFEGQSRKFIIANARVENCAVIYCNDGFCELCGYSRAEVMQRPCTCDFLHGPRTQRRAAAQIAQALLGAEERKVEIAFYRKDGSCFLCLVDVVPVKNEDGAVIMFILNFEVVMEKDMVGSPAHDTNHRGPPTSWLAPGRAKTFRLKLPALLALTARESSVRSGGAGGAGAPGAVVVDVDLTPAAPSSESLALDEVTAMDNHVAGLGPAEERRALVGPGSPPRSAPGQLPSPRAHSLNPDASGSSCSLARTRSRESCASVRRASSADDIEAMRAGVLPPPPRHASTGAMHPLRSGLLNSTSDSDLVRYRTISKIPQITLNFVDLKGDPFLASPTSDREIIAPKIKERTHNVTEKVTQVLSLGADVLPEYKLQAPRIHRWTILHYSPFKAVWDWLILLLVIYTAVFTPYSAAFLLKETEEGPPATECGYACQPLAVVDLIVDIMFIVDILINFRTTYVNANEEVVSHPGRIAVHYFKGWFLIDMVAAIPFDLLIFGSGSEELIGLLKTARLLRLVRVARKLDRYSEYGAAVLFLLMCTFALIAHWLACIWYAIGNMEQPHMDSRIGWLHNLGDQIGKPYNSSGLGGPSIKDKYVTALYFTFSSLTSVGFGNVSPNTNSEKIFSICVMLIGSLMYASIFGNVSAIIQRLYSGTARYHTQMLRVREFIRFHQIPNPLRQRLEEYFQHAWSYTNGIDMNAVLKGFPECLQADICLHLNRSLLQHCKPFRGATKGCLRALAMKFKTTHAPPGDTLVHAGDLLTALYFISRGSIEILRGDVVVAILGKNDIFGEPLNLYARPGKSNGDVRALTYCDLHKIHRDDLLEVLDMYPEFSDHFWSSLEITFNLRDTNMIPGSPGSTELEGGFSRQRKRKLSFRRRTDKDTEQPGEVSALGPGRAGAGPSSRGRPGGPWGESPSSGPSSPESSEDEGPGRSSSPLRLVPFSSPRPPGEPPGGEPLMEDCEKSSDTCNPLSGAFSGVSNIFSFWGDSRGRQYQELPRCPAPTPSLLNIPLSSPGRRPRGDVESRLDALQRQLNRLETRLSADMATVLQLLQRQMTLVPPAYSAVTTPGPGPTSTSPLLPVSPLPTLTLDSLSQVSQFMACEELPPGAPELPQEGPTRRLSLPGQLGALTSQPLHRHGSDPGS
From the text: In order to test the hERG ligand binding assay of the compound of the formula A, a non-electrophysiological method was used to evaluate heart stability by evaluating fluorescence polarization according to the degree of hERG channel protein binding of a red fluorescent hERG channel ligand tracer.

[9] = target: T1, A1 adenosine receptor (Homo sapiens, UniProt P30542); test: Radioligand binding affinity, A1 adenosine receptor ([3H]CCPA, CHO cells); set-up: % hA1: dose or concentration left out as unconfirmed; conditions: percentage inhibition of specific binding of [3H]CCPA
T1 construct: expressed in transfected cells; host or cells: CHO cells (ATCC No. CCL-61)
T1 sequence (P30542 1-326): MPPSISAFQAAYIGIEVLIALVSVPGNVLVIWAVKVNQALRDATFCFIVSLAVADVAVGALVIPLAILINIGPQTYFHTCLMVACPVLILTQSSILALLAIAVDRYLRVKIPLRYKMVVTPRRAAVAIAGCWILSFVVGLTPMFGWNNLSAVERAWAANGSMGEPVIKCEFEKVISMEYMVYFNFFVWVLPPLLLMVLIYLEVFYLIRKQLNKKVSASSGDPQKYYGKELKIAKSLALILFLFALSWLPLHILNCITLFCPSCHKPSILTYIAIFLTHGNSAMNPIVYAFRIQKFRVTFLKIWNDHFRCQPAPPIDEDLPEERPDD
Protocol: CHO cells (ATCC No. CCL-61), in which A1 and A3 adenosine receptors were expressed, were cultured in F-12 media (Gibco, U.S.A.) supplemented with 10% fetal bovine serum (FBS) and penicillin/streptomycin (100 units/ml and 100 g/ml), at 37° C. in a 5% CO2 atmosphere. […] Incubation for 1 hr in a 37° C. incubator was followed by rapid filtration in a vacuum using a cell collector (TOMTEC, U.S.A.). Subsequently, the test tubes were washed three times with 3 ml of the buffer before radioactivity was measured using a γ-counter. […] Ki for binding affinity was determined by subtracting the non-specific binding value from the total binding value. On the basis of the specific binding values, the samples were analyzed for binding affinity to various adenosine receptors.

[10] = target: T2, A2A adenosine receptor (Homo sapiens, UniProt P29274); test: Radioligand binding affinity, A2A adenosine receptor ([3H]CGS-21680, HEK 293 cell); conditions: percentage inhibition of specific binding of 10 µM
T2 construct: expressed in transfected cells; host or cells: HEK 293 cell
T2 sequence (P29274 whole entry): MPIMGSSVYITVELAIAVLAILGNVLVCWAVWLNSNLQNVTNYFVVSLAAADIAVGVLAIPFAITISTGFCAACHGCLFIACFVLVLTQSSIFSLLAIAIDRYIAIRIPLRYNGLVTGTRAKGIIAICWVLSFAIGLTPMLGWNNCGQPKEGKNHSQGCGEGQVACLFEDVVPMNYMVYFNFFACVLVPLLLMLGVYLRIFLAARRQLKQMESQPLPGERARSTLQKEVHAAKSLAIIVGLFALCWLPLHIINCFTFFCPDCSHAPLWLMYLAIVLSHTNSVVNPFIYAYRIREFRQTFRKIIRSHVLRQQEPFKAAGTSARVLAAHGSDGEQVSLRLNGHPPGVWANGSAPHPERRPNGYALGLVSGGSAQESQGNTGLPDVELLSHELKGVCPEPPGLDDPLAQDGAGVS
Protocol: The adenosine derivatives of the present invention were assayed for binding affinity and selectivity for A1, A2A and A3 receptors among human adenosine receptor (hAR) as follows.
Adenosine deaminase was added alone or in combination with a radioactive ligand when cerebral meninges were incubated at 30° C. for 30 min. Each of the compounds synthesized in the examples was measured for IC50 at least 6 different concentrations, and the measurements were analyzed using SigmaPlot software to determine Ki values.

[11] = system: rats; test: Single-dose toxicity in rats; conditions: summary Table 11
Protocol: In order to test the single-dose toxicity of the compound of the formula A, a single dose of 2,000 mg/kg of the compound of the formula A was administered to each of five male rats and five female rats.

O[C@@H]1[C@H](O)CS[C@H]1n1cnc2c(NCc3cccc(Cl)c3)nc(Cl)nc21 [Example 2, (2R,3R,4S)-2-(2-chloro-6-(3-chlorobenzylamino)-9H-purin-9-yl)tetrahydrothiophen-3,4-diol]
bioavailability ([1]; read-out: bioavailability Ft): ≥ 99.9%
half-life ([1]; read-out: half-life T1/2): ≥ 3.34 h
half-life [2]: ~3.61 h
half-life [3]: ≥ 5.53 h
weight gain or feed intake versus control group [4]: No difference
death ([4]; observation for 24 hrs): No death was observed
weight gain or feed intake versus control group [5]: No difference
death ([5]; observation for 24 hrs): No death was observed
IC50 [6]: ≥ 10 µM
Toxicity, Cytotoxicity evaluation [7]: Not detected
inhibition rate (hERG ligand binding) ([8]; 10 µM of the compound): ≤ 50%
Toxicity, hERG ligand binding assay evaluation ([8]; summary Table 11): Not detected
% hA1 [9]: 37.9%
% hA2A [10]: 17.7%
Toxicity, Single-dose toxicity evaluation [11]: Not detected
